25 compounds from patent US4472400A, “Triazoloquinazolones having antihistaminic and bronchospasmolytic activity” (Roussel Uclaf, priority 1981, dated 1984) can be followed below.

Test [1] has as its system histamine-induced bronchoconstriction. Put plainly: Effects on histamine-induced bronchoconstriction in anaesthetised guinea pigs (KRG). The class given is in vivo, guinea pig (male Dunkin Hartley). The settings on record: Cavia porcellus, iv, read-out: KRG ED50 (effective dose required to reduce the histamine-induced constriction in lung air volume by 50%).
Protocol: (A) Effects on histamine-induced bronchoconstriction in anaesthetised guinea pigs (KRG)
Male Dunkin Hartley guinea-pigs weighing 350-650 grams were anaesthetised with urethane (25% w/v solution in distilled water at 7.0 ml/kg i.p). […] The animals were ventilated with a ventilatory pump, stroke volume of 8 ml and frequency of 52 to maintain a lung inflation pressure of 10 cm of H2 O. Blood pressure was measured via a cannula in the right carotid artery connected to a Statham blood pressure transducer and a Devices M2 recorder. The test compounds were administered via the cannulated left jugular vein and washed in with 0.1 ml of 0.9% w/w NaCl in distilled water. The test product was administered immediately before the histamine which was used as the agonist.
Respiratory changes were recorded via a differential transducer connected to an SE 905 transducer/converter which in turn was connected to a Devices M2 recorder.
In test [2] the test system is histamine induced resistance change. The test can be described thus: Measurement of Pulmonary Compliance and Resistance (RMG), histamine induced resistance change. As to conditions: Cavia porcellus, iv; anaesthetised guinea-pigs (Hypnorm/Valium), gallamine pre-treated; compound via right jugular vein; forced oscillation; read-out: RMG ED50 (effective dose required to reduce the histamine induced resistance change by 50%). It is filed as in vivo, guinea pig (male Dunkin Hartley). The protocol:
(B) Measurement of Pulmonary Compliance and Resistance (RMG)
Male Dunkin Hartley guinea-pigs weighing between 400 and 650 g were anaesthetised with a combination of Hypnorm (1 ml/kg i.m.) and Valium (5 mg/kg i.p.). The trachea was cannulated and cannulae were inserted into the right jugular vein for the administration of compounds and left carotid artery for blood pressure measurement.
The animals were ventilated at a tidal volume of 6-8 ml and 10-12 cmH2 0 distension pressure was obtained. The respiratory rate was adjusted to 40-50/min. The animals were pre-treated with gallamine triethiodide (4 mg/kg i.v.) to maintain paralysis of respiratory muscles. Oxygen enrichment was applied to the inspiratory limb of the ventilator.
Respiratory resistance was measured by forced oscillation (Clay and Hughes 1980). Sinusodal wave forms of pressure were divided by flow at constant lung volumes to detect resistance changes. Sine wave production was achieved by a loudspeaker driven at 6-7 Hz through a pressure transducer, pneumotachograph and differential pressure transducer to detect pressure and flow contributions of the wave form. […] Drugs and analysis of activity were as described for the Konzett Rossler technique. Ref. Clay, T. P. and Hughes, J. M. B. (1980) J. Physiol. 308 427-437. The results given in Table V show the effective dose of each of the test compounds required to reduce the histamine induced resistance change by 50%.

[3] abbreviates: anaesthetised guinea-pigs (urethane), test compound i.v. (jugular vein) immediately before histamine.

Where two headings read alike, the source gives them in different places. A value given as a limit tells only on which side of the number the result lay.

Turning to `CCCn1c(=O)c2ccccc2n2c(CN3CCCCC3)nnc12.Cl.O` [Example 1, 1-Piperidinomethyl-4-n-propyl[1,2,4]triazolo[4,3-a]quinazolin-5(4H)-one hydrochloride, monohydrate], the ED50 (usually the dose at which the effect has come halfway, by size or by number of responders) in test [1] (setting [3]) amounted to 0.12 mg/kg.

Consider `CCCn1c(=O)c2ccccc2n2c(CN(CC)CC)nnc12` [Example 2], for which the ED50 in test [2] turned out to be 0.5 mg/kg.

Consider `CCCn1c(=O)c2ccccc2n2c(CN3CCN(C)CC3)nnc12` [Example 3], for which the 50% effective dose (ED50) in test [1] (setting [3]) was 5.28 mg/kg.

Consider `CCCn1c(=O)c2ccccc2n2c(CN3CCCC3)nnc12` [Example 4], for which the ED50 in test [1] (setting [3]) was determined as 2 mg/kg.

In the case of `CCCn1c(=O)c2ccccc2n2c(CN3CCCCCC3)nnc12` [Example 5], the ED50 came out at 0.096 mg/kg in test [1] (setting [3]) and 0.3 mg/kg in test [2].

On to `CCCn1c(=O)c2ccccc2n2c(CN3CCN(c4ccccc4)CC3)nnc12` [Example 6], for which, in test [1] (setting [3]), the ED50 turned out to be 5 mg/kg.

With `CCCn1c(=O)c2ccccc2n2c(CN3CC4CCC(CC4)C3)nnc12` [Example 7], the ED50 in test [1] came out at 0.33 mg/kg.

Consider `CCCn1c(=O)c2ccccc2n2c(CN3CC(C)CC(C)C3)nnc12` (centres unmarked) [Example 8], for which, in test [1] (setting [3]), the median effective dose (ED50) came out at 1 mg/kg.

As for `CCCNCc1nnc2n(CCC)c(=O)c3ccccc3n12` [Example 10], the median effective dose (ED50) in test [1] (setting [3]) amounted to 1.97 mg/kg.

For `CCCn1c(=O)c2ccccc2n2c(CNC3CCCCC3)nnc12` [Example 11], the 50% effective dose (ED50) in test [1] (setting [3]) is 1.8 mg/kg.

Take `CCCCNCc1nnc2n(CCC)c(=O)c3ccccc3n12` [Example 12]: in test [1] (setting [3]), the median effective dose (ED50) came out at 1.3 mg/kg.

Turning to `CCCCN(CCCC)Cc1nnc2n(CCC)c(=O)c3ccccc3n12` [Example 14], the ED50 in test [1] (setting [3]) came to 2.9 mg/kg.

On to `CC(C)n1c(=O)c2ccccc2n2c(CN3CCCCC3)nnc12` [Example 19], for which the ED50 in test [1] (setting [3]) was 0.185 mg/kg.

`CC(C)n1c(=O)c2ccccc2n2c(CN3CCCCCC3)nnc12` [Example 20]: in test [1] (setting [3]), the ED50 is 0.8 mg/kg.

On to `CCCCn1c(=O)c2ccccc2n2c(CN3CCCCC3)nnc12` [Example 21, 1-piperidinomethyl-4-n-butyl[1,2,4]triazolo[4,3-a]quinazolin-5(4H)-one], for which the ED50 in test [1] (setting [3]) worked out at 0.11 mg/kg; in test [2], 0.15 mg/kg.

For `CCCCn1c(=O)c2ccccc2n2c(CN3CCCCCC3)nnc12` [Example 22, 1-(2,3,4,5,6,7,-hexahydroazepino)methyl-4-n-butyl[1,2,4]triazolo[4,3-a] quinazolin-5(4H)-one], the ED50 in test [1] (setting [3]) was 0.84 mg/kg.

Turning to `Cn1c(=O)c2ccccc2n2c(CN3CCCCC3)nnc12` [Example 23], the ED50 in test [1] (setting [3]) is more than 1 mg/kg; in test [2], 1 mg/kg.

Regarding `Cn1c(=O)c2ccccc2n2c(CN3CCOCC3)nnc12` [Example 24], the 50% effective dose (ED50) in test [1] (setting [3]) was 2.76 mg/kg; in test [2], 1.8 mg/kg.

`CCOC(=O)N1CCN(Cc2nnc3n(C)c(=O)c4ccccc4n23)CC1` [Example 25]: the median effective dose (ED50) was found to be 5 mg/kg in test [1] (setting [3]) and 3.5 mg/kg in test [2].

For the compound `CCN(CC)Cc1nnc2n(C)c(=O)c3ccccc3n12` [Example 26], the ED50 in test [1] (setting [3]) is 3.75 mg/kg; in test [2], 1 mg/kg.

For the compound `CN1CCN(Cc2nnc3n(C)c(=O)c4ccccc4n23)CC1` [Example 27], the ED50 in test [2] came out at 0.8 mg/kg.

As to `CCn1c(=O)c2ccccc2n2c(CN3CCCCC3)nnc12` [Example 29, 1-piperidinomethyl-4-ethyl[1,2,4]triazolo[4,3-a]quinazolin-5 (4H)-one], the values for the ED50 in test [1] (setting [3]) and in test [2] were 0.35 mg/kg and 0.5 mg/kg, respectively.

`CCN(CC)Cc1nnc2n(CC)c(=O)c3ccccc3n12` [Example 30]: in test [2], the 50% effective dose (ED50) stood at 1 mg/kg.

Take `O=c1c2ccccc2n2c(CN3CCCCC3)nnc2n1-c1ccccc1` [Example 31]: the ED50 in test [1] (setting [3]) was determined as 0.58 mg/kg.

On to `C=CCn1c(=O)c2ccccc2n2c(CN3CCCCC3)nnc12` [Example 33, 4-allyl-1-piperidinomethyl[1,2,4]triazolo[4,3-a]quinazolin-5(4H)-one], for which, in test [1] (setting [3]), the median effective dose (ED50) was found to be 0.31 mg/kg.
